According to ChEMBL document CHEMBL1151478, “ent-Kaurane diterpenoids from Isodon scoparius” (J Nat Prod, 2009):

Experiments:
Type in all cases: functional, cell-based
NB-4 = test: Cytotoxicity against human NB4 cells after 48 hrs by WST-8 assay; settings: NB-4, 48 h
A549 = test: Cytotoxicity against human A549 cells after 48 hrs by WST-8 assay; settings: A549, 48 h
PC-3 = test: Cytotoxicity against human PC3 cells after 48 hrs by WST-8 assay; settings: PC-3, 48 h
MCF7 = test: Cytotoxicity against human MCF7 cells after 48 hrs by WST-8 assay; settings: MCF7, 48 h
SH-SY5Y = test: Cytotoxicity against human SH-SY5Y cells after 48 hrs by WST-8 assay

Row | Structure (SMILES) | IC50 (NB-4) [µM] | IC50 (A549) [µM] | IC50 (PC-3) [µM] | IC50 (MCF7) [µM] | IC50 (SH-SY5Y) [µM]
1 | CC(=O)CC[C@H]1C(=O)[C@@]23[C@H](O)C[C@@H]4[C@@](C)(CO)CCC[C@@]4(C)[C@@H]2C(=O)[C@H](O)[C@H]1[C@H]3O | > 10 | > 10 | > 10 | > 10 | > 10
2 | COc1cc([C@@H]2c3cc4c(cc3[C@@H](O[C@@H]3O[C@@H]5CO[C@@H](C)O[C@H]5[C@H](O)[C@H]3O)[C@H]3COC(=O)[C@H]23)OCO4)cc(OC)c1O [ETOPOSIDE] | 1.3 | 1.7 | 13.6 |  | 1.7
3 | C=C1C(=O)[C@@]23[C@H](O)C[C@@H]4C(C)(C)CC[C@H](O)[C@@]4(C)[C@@H]2C[C@H](O)[C@@H]1[C@H]3O [EXCISANIN A] | 8.2 | > 10 | > 10 | > 10 | > 10
4 | C=C1C(=O)[C@@]23CC[C@@H]4[C@@](C)(CO)CC[C@H](O)[C@@]4(C)[C@@H]2CC[C@@H]1[C@H]3O [EXCISANIN K] | 8.7 | > 10 | > 10 | > 10 | > 10
5 | C=C1C(=O)[C@@]23[C@H](O)C[C@@H]4[C@@](C)(CO)CCC[C@@]4(C)[C@@H]2C(=O)C[C@@H]1[C@H]3O [HENRYINE A] | 2.3 | > 10 | 7 | > 10 | 5.1
6 | CC1(C)CCC[C@]2(C)[C@@H]1C[C@@H](O)[C@@]13C(=O)[C@@]4(CO4)[C@@H]([C@H]1O)[C@@H](O)C(=O)[C@@H]23 [ISOSCOPARIN D] | > 10 | > 10 | > 10 | > 10 | > 10
7 | C=C1[C@@H]2[C@@H](O)[C@H](O)[C@H]3[C@]4(C)CCCC(C)(C)[C@H]4CC(=O)[C@@]3([C@@H]1OC(C)=O)[C@@H]2O [ISOSCOPARIN F] | 2.2 | 9.9 | > 10 | 3.9 | 9.2
8 | C=C1[C@@H](O)[C@@]23[C@H](O)C[C@@H]4[C@@](C)(CO)CCC[C@@]4(C)[C@@H]2C(=O)C[C@@H]1[C@H]3O [ISOSCOPARIN H] | > 10 | > 10 | > 10 | > 10 | > 10
9 | C=C1C(=O)[C@@]23[C@H](O)C[C@H]4[C@@](C)(CCC[C@]4(C)C=O)[C@@H]2[C@@H](O)C[C@@H]1[C@H]3O [ISOSCOPARIN I] | 4.4 | > 10 | > 10 | > 10 | > 10
10 | C=C1C(=O)[C@@]23[C@H](O)C[C@@H]4C(C)(C)CCC[C@@]4(C)[C@@H]2C[C@H](O)[C@@H]1[C@H]3O [ISOSCOPARIN L] | 0.7 | 6.4 | > 10 | 2.2 | 6.8
11 | C=C1C(=O)[C@@]23[C@H](O)C[C@@H]4C(C)(C)CC[C@H](O)[C@@]4(C)[C@@H]2CC[C@@H]1[C@H]3O [KAMEBANIN] | 0.9 | 7.3 | > 10 | 8.4 | 8.9
12 | C=C1[C@@H](O)[C@]23[C@H](O)[C@H]1CC[C@H]2[C@@]12CO[C@@]3(O)[C@@H](O)[C@@H]1C(C)(C)CC[C@@H]2OC(C)=O [LASIOKAURINOL] | > 10 | > 10 | > 10 | > 10 | > 10
13 | CC(=O)O[C@H]1C(=O)[C@@]2(C)[C@H]([C@H](OC(=O)c3ccccc3)[C@]3(O)C[C@H](OC(=O)[C@H](O)[C@@H](NC(=O)c4ccccc4)c4ccccc4)C(C)=C1C3(C)C)[C@]1(OC(C)=O)CO[C@@H]1C[C@@H]2O [PACLITAXEL] | 0.1 | 0.1 | 0.2 | 0.1 | 0.2
14 | C=C1C(=O)[C@@]23[C@H](O)C[C@@H]4C(C)(C)CCC[C@@]4(C)[C@@H]2C(=O)[C@H](O)[C@@H]1[C@H]3O [PHYLLOSTACHYSIN D] | 0.3 | > 10 | > 10 | > 10 | > 10
15 | C=C1C(=O)[C@@]23CC[C@@H]4C(C)(C)CC[C@H](O)[C@@]4(C)[C@@H]2[C@@H](O)C[C@@H]1[C@H]3O [PHYLLOSTACHYSIN H] | > 10 | > 10 | > 10 | > 10 | > 10
16 | C=C1C(=O)[C@@]23[C@H](O)C[C@@H]4C(C)(C)CC[C@H](O)[C@@]4(C)[C@@H]2[C@@H](O)C[C@@H]1[C@H]3O [RABDOINFLEXIN B] | > 10 | > 10 | > 10 | > 10 | > 10
17 | C=C1C(=O)[C@@]23[C@H](O)C[C@@H]4C(C)(C)CCC[C@@]4(C)[C@@H]2[C@@H](O)[C@H](O)[C@@H]1[C@H]3OC(C)=O [RABDOKUNMIN A] | 2.7 | 2.8 | > 10 | > 10 | > 10
18 | C=C1C(=O)[C@@]23[C@H](O)C[C@@H]4[C@@](C)(CO)CCC[C@@]4(C)[C@@H]2C[C@H](O)[C@@H]1[C@H]3O [RABDOKUNMIN C] | > 10 | > 10 | > 10 | > 10 | > 10
19 | C=C1C(=O)[C@@]23[C@H](O)C[C@@H]4[C@@](C)(CO)CCC[C@@]4(C)[C@@H]2[C@@H](O)C[C@@H]1[C@H]3O [RABDOKUNMIN D] | > 10 | > 10 | > 10 | > 10 | > 10
20 | C=C1C(=O)[C@@]23[C@H](O)C[C@@H]4[C@@](C)(CO)CCC[C@@]4(C)[C@@H]2C(=O)[C@H](O)[C@@H]1[C@H]3O [RABDOLOXIN A] | > 10 | > 10 | > 10 | > 10 | > 10
21 | C=C1C(=O)[C@@]23[C@H](O)C[C@@H]4C(C)(C)CCC[C@@]4(C)[C@@H]2[C@@H](O)[C@H](O)[C@@H]1[C@H]3O [RABDOLOXIN B] | 2.8 | 1.7 | > 10 | > 10 | > 10
